# What was measured:
# [1] = test system: 800 cancer cell lines; assay: Cell viability screen with GSEA of mesenchymal gene signature; type: cell-based; details: 0.005-1.28 μM, viability several days after treatment
# Procedure: FIGS. 1D-1E are a series of scatter plots showing the results of a Gene Set Enrichment Analysis (GSEA) screen of 800 cancer cell lines for sensitivity to chaetocin applied at 9 different concentrations (0.005 μM, 0.01 μM, 0.02 μM, 0.04 μM, 0.08 μM, 0.16 μM, 0.32 μM, 0.64 μM, and 1.28 μM) in culture. Cell viability was measured several days after chaetocin treatment. FIG. 1D is a scatter plot showing the chaetocin sensitivity of all tested cells lines: mesenchymal gene expression signature (SNAIL-induced early-repressed gene set) (Y-axis) is plotted against area under the curve (AUC) calculated by measuring percent cell death caused by increasing doses of chaetocin (X-axis). Mesenchymal gene expression signature (SNAIL-induced early-repressed gene set) used in the Y-axis was based on the Javaid et al 2013 paper.
# To determine whether sensitivity of cancer cells to chaetocin correlates with mesenchymal cell phenotype, the sensitivity or resistance of 800 cancer cell lines to chaetocin was assayed by the group of Cyril Benes treating each cell line with chaetocin at concentrations of 0.005 μM, 0.01 μM, 0.02 μM, 0.04 μM, 0.08 μM, 0.16 μM, 0.32 μM, 0.64 μM, and 1.28 μM. Cell viability was measured several days following treatment. […]
# [2] = test system: HMLE-TWIST cells; assay: RNA-seq after two days of chaetocin and two days after removal (Enrichr); type: cell-based, human; details: versus DMSO, cells found to have mycoplasma infection
# Procedure: Briefly, HMLE-TWIST cells were treated for two days with increasing doses of chaetocin (0.1, 0.15, 0.2, 0.5 uM). The cells were then washed and incubated for an additional 2 days in chaetocin-free media. Cells were collected before chaetocin treatment and at the 2-day and 4-day timepoints. Total RNA was extracted and subjected to deep sequencing. All chaetocin-treated transcriptomes were compared to cells treated with DMSO for 2 and 4 days which served as controls.
# Using FACS (see FIGS. 3A-3X), it was shown that mesenchymal, TIC-rich HMLE-TWIST cells treated with increasing doses of chaetocin lose their mesenchymal properties. […] All transcriptomes were compared to the corresponding DMSO-treated controls.
# The results for two representative chaetocin concentrations ([…]) are shown. Other concentrations produced a highly similar list of pathways. Only pathways whose enrichment is associated with an adjusted p value of less than 0.05 are indicated. Pathways listed in italicized font are those which have a known role in promoting the formation of the mesenchymal state in published literature. The pathways marked with an asterisk in tables above are those having known roles as tumor suppressors.
# The results for two representative chaetocin concentrations ([…]) are shown. Other concentrations produced a highly similar list of pathways. […]
compound,measurement,setting,value
CN1C(=O)[C@@]23C[C@]4([C@]56C[C@@]78SS[C@](CO)(C(=O)N7[C@H]5Nc5ccccc56)N(C)C8=O)c5ccccc5N[C@@H]4N2C(=O)[C@@]1(CO)SS3 [chaetocin],sensitivity (AUC of percent cell death) versus mesenchymal gene signature,[1],cells with mesenchymal transcriptional signature are sensitive to chaetocin
same,pathways changed after two days of treatment,"[2]; 0.1, 0.15, 0.2, 0.5 uM for two days","repression of several mesenchymal pathways and an increase in DNA repair and two important tumor suppressing pathways, p53 and Rb"
same,persistence of transcriptional changes,[2]; 2 days after chaetocin removal,transcriptional changes persist after chaetocin removal

# Source: patent US12396996B2, “Compounds, pharmaceutical compositions, and methods of their use in reversing cancer chemoresistance” (priority 2019, dated 2025)
